Measured values as given in paper PMC11969009 (Nature Communications, 2025).
Values joined by “and” are separate entries in the source; they are usually repeats but may differ in a detail not shown here. Equal entries are not always repeated. Where two headings read alike, the source gives them in different places.

What was measured:
SARS-CoV-2 P21 = test system: SARS-CoV-2 P21; design: species or system C57BL/6 (WT) mice; details: mouse, in vivo
HKU1 PLpro = HKU1 PLpro (Human coronavirus HKU1, UniProt P0C6X2); test: biochemical; assay type: biochemical; design: inhibition of HKU1 PLpro, UbRh dose-response replicate value: unit: %
HKU1 PLpro, sequence (P0C6X2 1648-1958 limits assumed): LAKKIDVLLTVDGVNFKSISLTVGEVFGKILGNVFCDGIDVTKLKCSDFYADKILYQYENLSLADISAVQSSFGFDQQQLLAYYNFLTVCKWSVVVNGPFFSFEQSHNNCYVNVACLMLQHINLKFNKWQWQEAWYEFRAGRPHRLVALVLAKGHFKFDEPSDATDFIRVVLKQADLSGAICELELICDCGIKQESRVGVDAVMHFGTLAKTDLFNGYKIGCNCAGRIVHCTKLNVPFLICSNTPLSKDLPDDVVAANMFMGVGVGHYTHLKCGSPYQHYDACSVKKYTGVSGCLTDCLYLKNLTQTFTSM

SARS-CoV PLpro = SARS-CoV PLpro (Severe acute respiratory syndrome coronavirus, UniProt P0C6X7); test: biochemical; design: inhibition of SARS-CoV PLpro, UbRh dose-response replicate value: unit: %
MERS-CoV PLpro = MERS-CoV PLpro (Middle East respiratory syndrome-related coronavirus, UniProt K9N7C7); assay type: biochemical; design: unit: %
MERS-CoV PLpro, sequence (K9N7C7 1482-1803 limits assumed): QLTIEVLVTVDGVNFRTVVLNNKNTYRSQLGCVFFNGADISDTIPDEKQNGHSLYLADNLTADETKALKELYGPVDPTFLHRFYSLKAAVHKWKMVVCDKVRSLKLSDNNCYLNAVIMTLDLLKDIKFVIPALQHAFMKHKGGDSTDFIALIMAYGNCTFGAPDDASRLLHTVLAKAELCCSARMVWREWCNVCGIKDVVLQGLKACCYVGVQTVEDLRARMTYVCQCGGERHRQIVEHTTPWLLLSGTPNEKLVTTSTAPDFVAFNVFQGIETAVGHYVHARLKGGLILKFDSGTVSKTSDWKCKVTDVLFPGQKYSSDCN

229E PL2pro = 229E PL2pro (Human coronavirus 229E, UniProt P0C6X1); test: biochemical; design: inhibition of 229E PL2pro, UbRh dose-response replicate value: unit: %
229E PL2pro, sequence (P0C6X1 1599-1905 limits assumed): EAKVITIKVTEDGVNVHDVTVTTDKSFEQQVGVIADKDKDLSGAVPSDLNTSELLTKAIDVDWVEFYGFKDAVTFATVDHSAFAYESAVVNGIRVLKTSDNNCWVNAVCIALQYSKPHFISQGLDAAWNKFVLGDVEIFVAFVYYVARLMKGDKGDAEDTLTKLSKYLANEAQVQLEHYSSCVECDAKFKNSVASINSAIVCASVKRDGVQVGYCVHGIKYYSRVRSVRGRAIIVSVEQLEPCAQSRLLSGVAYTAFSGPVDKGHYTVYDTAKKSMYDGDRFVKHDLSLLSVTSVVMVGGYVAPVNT

OC43 PLpro = OC43 PLpro (Human coronavirus OC43, UniProt P0C6X6); assay type: biochemical; design: unit not given here
OC43 PLpro, sequence (P0C6X6 1561-1872 limits assumed): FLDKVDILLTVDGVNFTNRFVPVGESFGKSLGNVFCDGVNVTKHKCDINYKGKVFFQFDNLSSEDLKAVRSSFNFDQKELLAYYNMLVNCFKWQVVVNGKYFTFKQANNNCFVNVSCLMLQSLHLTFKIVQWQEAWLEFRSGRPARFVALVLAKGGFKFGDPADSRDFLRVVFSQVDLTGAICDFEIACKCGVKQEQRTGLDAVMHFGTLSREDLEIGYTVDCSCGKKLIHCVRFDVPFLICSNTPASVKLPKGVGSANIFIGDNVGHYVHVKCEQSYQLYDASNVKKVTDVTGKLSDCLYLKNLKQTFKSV

USP21 = USP21 (Homo sapiens, UniProt Q9UK80); assay type: biochemical
USP21, sequence (Q9UK80 whole entry): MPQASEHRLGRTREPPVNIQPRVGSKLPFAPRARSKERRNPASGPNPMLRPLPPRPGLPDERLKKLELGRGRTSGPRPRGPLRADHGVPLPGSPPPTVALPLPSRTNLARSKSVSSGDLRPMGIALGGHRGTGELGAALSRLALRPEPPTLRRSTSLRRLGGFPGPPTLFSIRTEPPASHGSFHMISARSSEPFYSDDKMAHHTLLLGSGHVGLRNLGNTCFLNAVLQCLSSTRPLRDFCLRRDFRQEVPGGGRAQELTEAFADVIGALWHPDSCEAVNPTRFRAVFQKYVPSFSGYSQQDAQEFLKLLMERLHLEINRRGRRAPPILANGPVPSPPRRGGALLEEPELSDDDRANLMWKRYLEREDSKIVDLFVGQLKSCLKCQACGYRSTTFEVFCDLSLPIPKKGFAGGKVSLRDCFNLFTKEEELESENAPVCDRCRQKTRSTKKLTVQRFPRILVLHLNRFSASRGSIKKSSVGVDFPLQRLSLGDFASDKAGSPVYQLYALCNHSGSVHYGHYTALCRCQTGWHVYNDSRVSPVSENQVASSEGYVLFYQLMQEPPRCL

SARS-CoV-2 PLpro = SARS-CoV-2 PLpro (Severe acute respiratory syndrome coronavirus 2, UniProt P0DTD1); test: biochemical
NL63 PL2pro = NL63 PL2pro (Human coronavirus NL63, UniProt P0C6X5); test: biochemical; design: inhibition of NL63 PL2pro, UbRh dose-response replicate value: unit: %
NL63 PL2pro, sequence (P0C6X5 1578-1876 limits assumed): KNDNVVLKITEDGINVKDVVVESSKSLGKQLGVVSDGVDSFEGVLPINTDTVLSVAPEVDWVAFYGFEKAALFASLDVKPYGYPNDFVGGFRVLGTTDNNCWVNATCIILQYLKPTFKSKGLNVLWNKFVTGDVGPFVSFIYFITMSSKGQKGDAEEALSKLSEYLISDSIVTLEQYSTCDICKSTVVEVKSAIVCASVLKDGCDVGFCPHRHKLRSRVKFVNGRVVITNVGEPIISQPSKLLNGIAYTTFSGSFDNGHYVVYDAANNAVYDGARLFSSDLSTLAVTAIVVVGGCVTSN

[1] = test system: SARS-CoV-2 clinical isolate VIC001; test: microbe, parasite or virus in culture; assay type: cell-based

## CCO/N=C(/c1ccc2cc(OC)ccc2c1)[C@@H]1CCCN([C@H]2CC[C@@H](O)CC2)C1 [P8-150]
SARS-CoV-2 P21
  Log2 Fold change IL-12p70: -2.36

## CO/N=C(/c1ccc2cc(OC)ccc2c1)[C@@H]1CCCN([C@H]2CC[C@@H](c3cc[nH]n3)CC2)C1 [WEHI-P70]
HKU1 PLpro
  inhibition of HKU1 PLpro, UbRh dose-response replicate value: -6.039 and -6.635 and 8.689 and -11.8697 and -9.542 and -8.165 and -7.3684 and -16.402
HKU1 PLpro; Conc 98 µM
  inhibition of HKU1 PLpro, UbRh dose-response replicate value: -3.115 and -4.878 and -6.077 and -8.873
SARS-CoV PLpro
  IC50: 94 nM
  inhibition of SARS-CoV PLpro, UbRh dose-response replicate value: 98.7016 and 99.911 and 99.674 and 98.9699 and 100.405 and 100.228
SARS-CoV PLpro; Conc 0.0149 µM
  SARS-CoV PLpro, UbRh hCoV Pan Activity dose-response: 11.412 and 10.2397 and 10.016 and 11.8574
SARS-CoV PLpro; Conc 0.0448 µM
  SARS-CoV PLpro, UbRh hCoV Pan Activity dose-response: 31.6247 and 32.2323 and 27.9576 and 29.7371
SARS-CoV PLpro; Conc 3.63 µM
  SARS-CoV PLpro, UbRh hCoV Pan Activity dose-response: 97.8161 and 97.4695 and 97.9055 and 98.3366
SARS-CoV PLpro; Conc 98 µM
  inhibition of SARS-CoV PLpro, UbRh dose-response replicate value: 99.4348 and 99.7657 and 100.125
SARS-CoV PLpro; Conc 98 µM, read-out: inhibition of SARS-CoV PLpro, UbRh dose-response replicate value
  inhibition at 98 µM: 98.6%
SARS-CoV PLpro; read-out: inhibition of SARS-CoV PLpro, UbRh dose-response replicate value
  inhibition at […]: 99.4%
MERS-CoV PLpro
  inhibition of MERS-CoV PLpro, UbRh dose-response replicate value: -8.262 and -6.812 and -8.29 and -8.637 and -10.7207 and -11.1211 and -8.564 and -8.857
MERS-CoV PLpro; Conc 98 µM
  inhibition of MERS-CoV PLpro, UbRh dose-response replicate value: -10.7242 and -11.7377 and -6.2046 and -4.979
229E PL2pro
  IC50: 26000 nM
  inhibition of 229E PL2pro, UbRh dose-response replicate value: 46.2136 and 48.684 and 48.4508 and 18.0648 and 22.1853 and 20.9697
229E PL2pro; Conc 98 µM
  inhibition of 229E PL2pro, UbRh dose-response replicate value: 70.621 and 72.3972 and 73.3316
229E PL2pro; read-out: inhibition of 229E PL2pro, UbRh dose-response replicate value
  inhibition at […]: 44.4% and 18.9%
229E PL2pro; read-out: inhibition of 229E PL2pro, UbRh dose-response replicate value, Conc 98 µM
  inhibition at 98 µM: 71.9%
OC43 PLpro
  inhibition of OC43 PLpro, UbRh dose-response replicate value: -10.4521 and -4.6612 and -0.2116 and -6.41 and -12.4786 and -1.279 and -4.6859
OC43 PLpro; Conc 98 µM
  inhibition of OC43 PLpro, UbRh dose-response replicate value: -8.82 and -6.432 and -0.556 and -3.797
USP21
  selectivity over USP21: selective over USP21
SARS-CoV-2 PLpro; Conc 0.545 µM, read-out: SARS-CoV-2 PLpro, UbRh dose-response
  inhibition at 0.545 µM: 87.3%
SARS-CoV-2 PLpro; Conc 1.63 µM, read-out: SARS-CoV-2 PLpro, UbRh dose-response
  inhibition at 1.63 µM: 96.4%
SARS-CoV-2 PLpro; Conc 4.9 µM, read-out: SARS-CoV-2 PLpro, UbRh dose-response
  inhibition at 4.9 µM: 102%
SARS-CoV-2 PLpro; IC50 (UbRh) SARS-CoV-2 PLpro
  IC50: 98 nM
SARS-CoV-2 PLpro; read-out: SARS-CoV-2 PLpro, UbRh dose-response
  inhibition at […]: 65.3% and 28.1%
NL63 PL2pro
  IC50: 648 nM
  inhibition of NL63 PL2pro, UbRh dose-response replicate value: 96.5311 and 98.0786 and 97.1472 and 94.6147 and 95.7019 and 95.1407
NL63 PL2pro; Conc 3.63 µM
  NL63 PL2pro, UbRh hCoV Pan Activity dose-response: 86.4411 and 86.623 and 87.2454 and 84.6973
NL63 PL2pro; Conc 98 µM
  inhibition of NL63 PL2pro, UbRh dose-response replicate value: 98.2213 and 99.4112 and 98.0123
NL63 PL2pro; Conc 98 µM, read-out: inhibition of NL63 PL2pro, UbRh dose-response replicate value
  inhibition at 98 µM: 98.4%
NL63 PL2pro; read-out: inhibition of NL63 PL2pro, UbRh dose-response replicate value
  inhibition at […]: 97.7% and 95.1%

## CCO/N=C(/c1ccc2cc(OC)ccc2c1)[C@@H]1CCCN([C@H]2CC[C@@H](O)CC2)C1 [P8-100]
SARS-CoV-2 P21
  Log2 Fold change IL-4: -0.18
  Log2 Fold change IL-9: -6.78

## CO/N=C(/c1ccc2cc(OC)ccc2c1)[C@@H]1CCCN([C@H]2CC[C@@H](O)CC2)C1 [WEHI P4]
[1]; concentration 0.01 µM
  Ext Data Fig 2f dose response (0 µM = 100): 109.2308 and 92.5900 and 114.0845 and 104.0541 and 89.7436
[1]; concentration 0.02 µM
  Ext Data Fig 2f dose response (0 µM = 100): 101.5385 and 95.0600 and 95.7746 and 97.2973 and 106.4103
[1]; concentration 0.04 µM
  Ext Data Fig 2f dose response (0 µM = 100): 107.6923 and 74.0700 and 95.7746 and 91.8919 and 82.0513
[1]; concentration 0.08 µM
  Ext Data Fig 2f dose response (0 µM = 100): 93.8462 and 80.2500 and 109.8592 and 101.3514 and 93.5897
[1]; concentration 5 µM
  Ext Data Fig 2f dose response (0 µM = 100): 0.0000
